Experiments:
[1] = tested on: hypoxic-ischemic injury, 21 day old Wistar rats; conditions: rat, in vivo, ip
Protocol: The objective of this study was to compare the effects of treatment with GPE to that of a vehicle given 2 hours after an hypoxic-ischemic injury. The dose range of 2 to 200 μg was chosen to span a range of systemic doses that are greater than that required centrally (see experiment 3).
Unilateral hypoxic-ischemic injury was induced in 21 day old, 45±5 g Wistar rats. The rats underwent unilateral carotid ligation under light halothane anaesthesia.
Following one hour recovery they were placed in an incubator at 34 deg C. 85±5% humidity for one hour before the injury. They were subjected to 1 min inhalation hypoxia (FiO2 8.0%) and then returned to room temperature (22 deg C.) and normoxia. […]
Surviving and dead neurons were discriminated using the thionin/acid fuchsin staining technique (Guan et al J Cereb Blood Flow Metab. 13:609-616 (1993). The results, in which the height of a point is given by the ratio as a percentage of live neurones in the CA1-2 region on the right side to the number on the left side are shown in FIG. 5. Column A is vehicle, column B is 2 μg of GPE, column C is 20 μg of GPE, and column D is 200 μg of GPE. In this figure, the P value (0.031) was calculated by a method using one way ANOVA comparing many groups after Arcsin transformation.

[2] = tested on: hypoxic-ischemic injury to one cerebral hemisphere, adult Wistar rats; assay: Experiment 1: IGF-1 and/or MK801 2 hours after unilateral hypoxic-ischemic injury, histology at 120 hours; format: in vivo, rat; conditions: treatment 2 hours after hypoxia, IGF-1 50 μg intraventricular, MK801 1 mg, controls 65%
Protocol: One carotid artery was ligated and the animal was subjected two hours later to a defined period of inhalational hypoxia. The degree, length of hypoxia, ambient temperature and humidity were defined to standardise the degree of damage. They were sacrificed five days later for histological analysis using stains (acid-fuchsin) specific for necrotic neurons.
Adult Wistar rats (68 280-320 g) were prepared under 3% halothane/O2 anaesthesia. The right side carotid artery was ligated. A guide cannula was placed on the dura 8.2 mm anterior from bregma and 1.4 mm from midline on the right. The rats were allowed to recover from anaesthesia for 1 hour and were then placed in an incubator with humidity 85±5% and temperature 34±0.5C. for 1 hour before hypoxia. Oxygen concentration was reduced and maintained at 6±0.2 02% hypoxia for 10 minutes. […] Fifty micrograms of IGF-1 or vehicle alone (0.1% BSA in 0.15M PBS (pH 7.3)) were given via intra-ventricular (IVC) infusion. […] The intraventricular injections of 50 μg IGF-1 or vehicle alone were made into the right lateral ventricle at 1 μl/minute under 1.5%-2% halothane anaesthetic. […] The presence of cortical infarction, defined as a region of tissue death or parenchymal pan-necrosis due to death of glia as well as neurons, was determined via light microscopy by an assessor who was blinded to the experimental groupings.

[3] = tested on: ischemic brain injury, late gestation fetal sheep; assay: Experiment 2: IGF-1 into lateral ventricle 2 hours after 30 minutes of brain ischemia in fetal sheep; format: in vivo
Description: The objective of this study was to compare the effects of treatment either with IGF-1 (see FIG. 2) and previously published work with the NMDA antagonist MK810 after an ischemic brain injury on postischernic seizures and neuronal losses in fetal sheep. (Tan et al Ann Neurol 32:677-682 (1992)).
The methods were those of an earlier study (Tan et al Ann Neurol 32:677-682 (1992)). Briefly, late gestation fetal sheep were chronically instrumented to record EEG, nuchal activity and blood pressure, and were then returned to the uterus. Cortical EEG activity, nuchal activity and blood pressure were recorded throughout he experiment and the fetal brain subjected to 30 minutes of ischemia. Two hours later they were treated by an infusion of either 1 μg IGF-1 (n=6) or vehicle (artificial CSF) (n=6) into the lateral ventricle. Five days later the brains were fixed and assessed for neuronal loss as described previously (Tan et al Ann Neurol 32:677-682 (1992)).
In all cases the vehicle is the left-hand column and the effects of 1 μg of IGF-1 is on the right.

[4] = tested on: ischemic brain injury, late gestation fetal sheep; conditions: ischemic model in fetal sheep; Tan et al Ann Neurol 32:677-682 (1992); cited from earlier work

NCC(=O)N1CCC[C@H]1C(=O)N[C@@H](CCC(=O)O)C(=O)O [GPE, gly-pro-glu]
passage of the blood-brain barrier [1]: can cross the blood-brain barrier

insulin-like growth factor 1 [IGF-1]
incidence of cortical infarction [2]: 33% | suppression of postischemic seizure activity ([3]; 1 μg IGF-1 2 h after ischemia): did not suppress the postischemic seizure activity | neuronal rescue (neuronal loss scores) ([3]; 1 μg IGF-1 into lateral ventricle 2 h after 30 minutes ischemia, assessed five days later): rescued neurons | suppression of cortical electroencephalographic activity [4]: did not suppress cortical electroencephalographic activity

C[C@]12N[C@H](Cc3ccccc31)c1ccccc12 [MK801, reference compound]
incidence of cortical infarction [2]: 50%
